Measurements published in patent US10344060B2 (priority 2013, dated 2019).
pIC50: −log10 of the molar value. Values joined by “and” are separate entries in the source; they are usually repeats but may differ in a detail not shown here. Equal entries are not always repeated. Where two headings read alike, the source gives them in different places.

Experiments:
Assay in all cases: cell-based
[1] = molecular target: hNav1.3 (Homo sapiens, UniProt Q9NY46); conditions: IonWorks Quattro; Table 9; read-out: IC50 (μM) Nav1.3
[2] = molecular target: T1, hNav1.4 (Homo sapiens, UniProt P35499); type: cell-based; conditions: for Nav1.4/Nav1.7: ratio of PX tonic IC50 values; for pIC50: read-out: PX hNav1.4 Tonic IC50
[3] = molecular target: hNav1.7 (Homo sapiens, UniProt Q15858); type: cell-based; conditions: for pIC50: read-out: PX hNav1.7 Tonic IC50
[4] = molecular target: T2, hNav1.5 (Homo sapiens, UniProt Q14524); conditions: IonWorks Quattro; Table 9; read-out: IC50 (μM) Nav1.5
[5] = molecular target: T2, hNav1.5; conditions: for Nav1.5/Nav1.7: ratio of PX tonic IC50 values; for pIC50: read-out: PX hNav1.5 Tonic IC50
[6] = molecular target: T1, hNav1.4; type: cell-based; conditions: Table 9; for Nav1.4/Nav1.7: ratio of IonWorks Quattro IC50 values
[7] = molecular target: hNav1.6 (Homo sapiens, UniProt Q9UQD0); type: cell-based; conditions: Table 15; for Nav1.6/Nav1.7: ratio of PX tonic IC50 values; for pIC50: read-out: PX hNav1.6 Tonic IC50
[8] = Table 12, PatchXpress, tonic block
[9] = ratio of PX tonic IC50 values, Table 11

Sequence of hNav1.7 (Q15858 whole entry): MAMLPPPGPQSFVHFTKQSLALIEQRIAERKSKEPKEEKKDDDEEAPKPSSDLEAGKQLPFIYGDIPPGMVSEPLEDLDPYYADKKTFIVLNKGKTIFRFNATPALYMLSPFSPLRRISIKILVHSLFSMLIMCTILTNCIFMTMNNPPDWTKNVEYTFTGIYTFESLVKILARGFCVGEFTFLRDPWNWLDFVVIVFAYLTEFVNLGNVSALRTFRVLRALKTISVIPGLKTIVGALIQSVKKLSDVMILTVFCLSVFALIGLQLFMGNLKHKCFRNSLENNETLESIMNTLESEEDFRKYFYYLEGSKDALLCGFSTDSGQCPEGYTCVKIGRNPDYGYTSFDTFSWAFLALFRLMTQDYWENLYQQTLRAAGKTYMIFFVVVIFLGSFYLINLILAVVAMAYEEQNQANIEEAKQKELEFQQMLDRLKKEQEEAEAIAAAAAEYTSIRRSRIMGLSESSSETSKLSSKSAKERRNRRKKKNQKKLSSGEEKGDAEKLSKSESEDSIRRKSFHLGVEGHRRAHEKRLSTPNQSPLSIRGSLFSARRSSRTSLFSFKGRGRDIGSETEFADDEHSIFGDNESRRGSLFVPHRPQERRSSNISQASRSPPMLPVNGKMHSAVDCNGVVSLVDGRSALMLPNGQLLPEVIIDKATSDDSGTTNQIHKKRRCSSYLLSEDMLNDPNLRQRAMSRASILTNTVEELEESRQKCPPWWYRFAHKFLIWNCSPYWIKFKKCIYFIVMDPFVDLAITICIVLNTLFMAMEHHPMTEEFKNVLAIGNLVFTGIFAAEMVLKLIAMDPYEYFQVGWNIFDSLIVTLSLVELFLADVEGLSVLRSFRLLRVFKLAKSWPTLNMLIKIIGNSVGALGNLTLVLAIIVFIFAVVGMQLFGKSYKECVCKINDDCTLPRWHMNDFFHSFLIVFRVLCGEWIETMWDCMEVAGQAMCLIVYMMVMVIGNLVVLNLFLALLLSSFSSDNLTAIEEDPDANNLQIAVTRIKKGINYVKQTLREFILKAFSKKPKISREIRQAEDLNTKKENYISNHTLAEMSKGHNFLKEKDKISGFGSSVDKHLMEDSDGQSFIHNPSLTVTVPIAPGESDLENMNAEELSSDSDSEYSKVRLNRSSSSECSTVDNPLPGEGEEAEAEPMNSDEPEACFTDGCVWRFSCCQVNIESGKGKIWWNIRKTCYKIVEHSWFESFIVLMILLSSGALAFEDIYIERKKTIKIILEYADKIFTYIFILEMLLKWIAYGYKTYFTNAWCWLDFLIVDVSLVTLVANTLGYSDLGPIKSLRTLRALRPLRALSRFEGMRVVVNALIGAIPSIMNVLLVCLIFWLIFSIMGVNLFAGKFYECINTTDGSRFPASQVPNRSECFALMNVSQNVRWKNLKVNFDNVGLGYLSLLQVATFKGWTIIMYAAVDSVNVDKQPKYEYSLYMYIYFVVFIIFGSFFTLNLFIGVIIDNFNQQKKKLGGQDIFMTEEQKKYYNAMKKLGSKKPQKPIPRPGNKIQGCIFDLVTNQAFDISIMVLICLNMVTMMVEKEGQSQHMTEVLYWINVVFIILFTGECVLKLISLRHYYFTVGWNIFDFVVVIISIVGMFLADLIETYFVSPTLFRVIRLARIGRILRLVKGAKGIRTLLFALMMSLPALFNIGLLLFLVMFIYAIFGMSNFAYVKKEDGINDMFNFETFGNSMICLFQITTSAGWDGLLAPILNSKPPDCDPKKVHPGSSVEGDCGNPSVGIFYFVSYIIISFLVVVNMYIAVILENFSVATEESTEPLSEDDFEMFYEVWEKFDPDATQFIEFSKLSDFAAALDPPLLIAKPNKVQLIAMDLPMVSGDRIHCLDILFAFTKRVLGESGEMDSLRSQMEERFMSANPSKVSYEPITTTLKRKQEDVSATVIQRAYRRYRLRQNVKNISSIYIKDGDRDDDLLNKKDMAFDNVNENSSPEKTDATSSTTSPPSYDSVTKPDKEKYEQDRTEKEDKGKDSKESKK
T1 sequence (P35499 whole entry): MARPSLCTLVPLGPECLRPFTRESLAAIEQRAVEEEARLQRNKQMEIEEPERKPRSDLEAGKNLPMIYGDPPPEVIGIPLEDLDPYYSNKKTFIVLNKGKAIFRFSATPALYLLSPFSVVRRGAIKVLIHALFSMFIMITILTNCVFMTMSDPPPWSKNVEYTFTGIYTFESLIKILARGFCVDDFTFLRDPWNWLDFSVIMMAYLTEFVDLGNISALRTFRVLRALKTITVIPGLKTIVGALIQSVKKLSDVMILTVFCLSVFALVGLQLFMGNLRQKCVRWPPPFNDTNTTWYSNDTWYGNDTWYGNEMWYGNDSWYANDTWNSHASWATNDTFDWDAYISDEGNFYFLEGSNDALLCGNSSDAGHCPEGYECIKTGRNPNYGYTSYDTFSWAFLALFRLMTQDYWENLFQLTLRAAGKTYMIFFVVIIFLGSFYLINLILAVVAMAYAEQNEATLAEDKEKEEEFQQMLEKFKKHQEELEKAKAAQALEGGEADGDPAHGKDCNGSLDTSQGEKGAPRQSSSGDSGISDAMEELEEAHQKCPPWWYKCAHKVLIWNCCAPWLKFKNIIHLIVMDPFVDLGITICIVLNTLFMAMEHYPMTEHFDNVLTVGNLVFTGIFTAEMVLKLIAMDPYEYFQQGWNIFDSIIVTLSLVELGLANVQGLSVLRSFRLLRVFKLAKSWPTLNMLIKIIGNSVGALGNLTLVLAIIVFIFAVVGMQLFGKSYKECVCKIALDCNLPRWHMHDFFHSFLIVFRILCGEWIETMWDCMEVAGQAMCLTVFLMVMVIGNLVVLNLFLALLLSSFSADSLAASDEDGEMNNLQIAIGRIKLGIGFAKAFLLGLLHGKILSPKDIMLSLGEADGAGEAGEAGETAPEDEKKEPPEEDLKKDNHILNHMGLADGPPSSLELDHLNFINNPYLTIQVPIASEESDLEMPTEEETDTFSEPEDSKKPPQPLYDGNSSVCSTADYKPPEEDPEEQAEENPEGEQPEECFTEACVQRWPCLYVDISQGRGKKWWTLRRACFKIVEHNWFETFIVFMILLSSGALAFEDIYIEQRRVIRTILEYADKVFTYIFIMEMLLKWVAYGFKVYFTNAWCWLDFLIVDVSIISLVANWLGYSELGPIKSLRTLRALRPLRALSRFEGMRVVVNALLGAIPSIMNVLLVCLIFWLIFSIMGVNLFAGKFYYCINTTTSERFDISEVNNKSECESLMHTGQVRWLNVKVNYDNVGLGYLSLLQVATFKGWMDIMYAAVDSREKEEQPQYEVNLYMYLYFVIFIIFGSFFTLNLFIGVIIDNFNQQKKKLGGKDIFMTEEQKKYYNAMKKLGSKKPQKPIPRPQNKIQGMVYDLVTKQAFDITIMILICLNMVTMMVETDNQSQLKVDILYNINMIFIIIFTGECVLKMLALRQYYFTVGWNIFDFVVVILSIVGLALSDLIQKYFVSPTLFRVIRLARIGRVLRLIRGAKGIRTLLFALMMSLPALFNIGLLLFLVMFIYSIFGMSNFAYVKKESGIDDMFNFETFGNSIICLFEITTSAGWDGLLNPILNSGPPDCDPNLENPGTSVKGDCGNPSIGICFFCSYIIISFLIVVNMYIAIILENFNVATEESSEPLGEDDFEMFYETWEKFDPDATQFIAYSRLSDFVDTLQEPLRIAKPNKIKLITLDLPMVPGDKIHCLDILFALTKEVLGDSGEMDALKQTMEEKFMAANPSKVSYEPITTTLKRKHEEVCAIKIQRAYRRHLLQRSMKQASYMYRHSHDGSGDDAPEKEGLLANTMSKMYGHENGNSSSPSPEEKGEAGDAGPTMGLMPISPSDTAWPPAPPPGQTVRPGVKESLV

Row | SMILES | Nav1.4/Nav1.7 ([2]; Table 13) | pIC50 [2] | pIC50 [3] | Nav1.5/Nav1.7 ([5]; Table 13) | pIC50 [5] | Nav1.4/Nav1.7 ([2]; Table 12) | Nav1.5/Nav1.7 ([5]; Table 12) | Nav1.6/Nav1.7 [7] | further results
1 | CCCC[C@@H]1NC(=O)[C@H](Cc2c[nH]c3ccccc23)NC(=O)[C@H](CCCCN)NC(=O)[C@H](CCC(N)=O)NC(=O)[C@@H](NC(=O)[C@@H](N)Cc2cn(CCCOCCOCCOCCOCCOCCOCCOCCOCCOCCOCCN)nn2)CSSC[C@@H]2NC(=O)[C@@H]3CSSC[C@@H](C(=O)N[C@@H](CCCNC(=N)N)C(=O)N[C@@H](CCCCN)C(=O)N[C@H](C(=O)N[C@H](C(N)=O)[C@@H](C)CC)[C@@H](C)CC)NC(=O)[C@H](Cc4c[nH]c5ccccc45)NC(=O)[C@H](CC(C)C)NC(=O)[C@H](CCCCN)NC(=O)[C@H](CSSC[C@H](NC(=O)[C@H]([C@@H](C)O)NC(=O)[C@H](Cc4c[nH]c5ccccc45)NC1=O)C(=O)N[C@@H](CC(=O)O)C(=O)N[C@@H](CO)C(=O)N[C@@H](CCCCN)C(=O)N[C@@H](CCCNC(=N)N)C(=O)N[C@@H](C)C(=O)N3)NC(=O)[C@H](CCCNC(=N)N)NC(=O)[C@H](CC(C)C)NC(=O)CNC(=O)[C@H](CCC(=O)O)NC2=O [compound 248] | 15 | 7.82 | 9.00 | 946 | 6.02 | – | – | – | IC50 [1]: 0.16 µM and 0.13 µM; IC50 [4]: > 7 µM; IC50 ([6]; IonWorks Quattro, read-out: IC50 (μM) Nav1.4): 0.39 µM and 0.45 µM; Nav1.4/Nav1.7 [6]: 4 and 3
2 | C#CC[C@@H]1NC(=O)[C@H](CCCNC(=N)N)NC(=O)[C@H](CCCCN)NC(=O)[C@H](CO)NC(=O)[C@H](CC(=O)O)NC(=O)[C@@H]2CSSC[C@@H]3NC(=O)[C@H](CCCNC(=N)N)NC(=O)[C@H](CC(C)C)NC(=O)CNC(=O)[C@H](CCC(=O)O)NC(=O)[C@H](CSSC[C@H](NC(=O)[C@@H](N)Cc4ccc(O)cc4)C(=O)N[C@@H](CCC(N)=O)C(=O)N[C@@H](CCCCN)C(=O)N[C@@H](Cc4c[nH]c5ccccc45)C(=O)N[C@@H](CCCC)C(=O)N[C@@H](Cc4c[nH]c5ccccc45)C(=O)N[C@@H]([C@@H](C)O)C(=O)N2)NC(=O)[C@H](CSSC[C@@H](C(=O)N[C@@H](CCCNC(=N)N)C(=O)N[C@@H](CCCCN)C(=O)N[C@H](C(=O)N[C@H](C(N)=O)[C@@H](C)CC)[C@@H](C)CC)NC(=O)[C@H](Cc2c[nH]c4ccccc24)NC(=O)[C@H](CC(C)C)NC(=O)[C@H](CCCCN)NC3=O)NC1=O [compound 283] | – | – | – | – | – | 17 | 2090 | – | Nav1.4/Nav1.7 [6]: 1
3 | CCC[C@H](N)C(=O)N[C@@H](Cc1ccc(O)cc1)C(=O)N[C@H]1CSSC[C@@H]2NC(=O)[C@@H]3CSSC[C@@H](C(=O)N[C@@H](CCCNC(=N)N)C(=O)N[C@@H](CCCCN)C(=O)N[C@H](C(=O)N[C@H](C(N)=O)[C@@H](C)CC)[C@@H](C)CC)NC(=O)[C@H](Cc4c[nH]c5ccccc45)NC(=O)[C@H](CC(C)C)NC(=O)[C@H](CCCCN)NC(=O)[C@H](CSSC[C@H](NC(=O)[C@H]([C@@H](C)O)NC(=O)[C@H](Cc4c[nH]c5ccccc45)NC(=O)[C@H](CC(C)C)NC(=O)[C@H](Cc4c[nH]c5ccccc45)NC(=O)[C@H](CCCCN)NC(=O)[C@H](CCC(N)=O)NC1=O)C(=O)N[C@@H](CC(=O)O)C(=O)N[C@@H](CO)C(=O)N[C@@H](CCCCN)C(=O)N[C@@H](CCCNC(=N)N)C(=O)N[C@@H](CCCCNC(=O)[C@@H](N)Cc1cn(CCOCCOCCOCCOCCOCCOCCOCCOCCOCCOCCN)nn1)C(=O)N3)NC(=O)[C@H](CCCNC(=N)N)NC(=O)[C@H](CC(C)C)NC(=O)CNC(=O)[C@H](CCC(=O)O)NC2=O [compound 446] | 11 | 6.89 | 7.93 | 207 | 5.62 | – | – | – | –
4 | C#CC[C@H](N)C(=O)N[C@@H](Cc1ccc(O)cc1)C(=O)N[C@H]1CSSC[C@@H]2NC(=O)[C@@H]3CSSC[C@@H](C(=O)N[C@@H](CCCNC(=N)N)C(=O)N[C@@H](CCCCN)C(=O)N[C@@H](CCC(N)=O)C(=O)N[C@H](C(N)=O)[C@@H](C)CC)NC(=O)[C@H](Cc4c[nH]c5ccccc45)NC(=O)[C@H](CC(C)C)NC(=O)[C@H](CCCCN)NC(=O)[C@H](CSSC[C@H](NC(=O)[C@H]([C@@H](C)O)NC(=O)[C@H](Cc4c[nH]c5ccccc45)NC(=O)[C@H](CCCC)NC(=O)[C@H](Cc4c[nH]c5ccccc45)NC(=O)[C@H](CCCCN)NC(=O)[C@H](CCC(N)=O)NC1=O)C(=O)N[C@@H](CC(=O)O)C(=O)N[C@@H](CO)C(=O)N[C@@H](CCCCN)C(=O)N[C@@H](CCCNC(=N)N)C(=O)N[C@@H](C)C(=O)N3)NC(=O)[C@H](CCCNC(=N)N)NC(=O)[C@H](CC(C)C)NC(=O)CNC(=O)[C@H](CCC(=O)O)NC2=O [compound 665] | – | – | – | – | – | 12 | 3529 | – | pIC50 [2, 8]: 7.97; pIC50 [3, 8]: 9.04; pIC50 [5, 8]: 5.49
5 | CCCC[C@@H]1NC(=O)[C@H](Cc2c[nH]c3ccccc23)NC(=O)[C@H](CCCCN)NC(=O)[C@H](CCC(N)=O)NC(=O)[C@@H](NC(=O)[C@H](Cc2ccc(O)cc2)NC(=O)[C@@H](N)CCC(=O)O)CSSC[C@@H]2NC(=O)[C@@H]3CSSC[C@@H](C(=O)N[C@@H](CCCNC(=N)N)C(=O)N[C@@H](CCCCN)C(=O)N[C@@H](CCC(=O)O)C(=O)N[C@H](C(N)=O)[C@@H](C)CC)NC(=O)[C@H](Cc4c[nH]c5ccccc45)NC(=O)[C@H](CC(C)C)NC(=O)[C@H](CCCCN)NC(=O)[C@H](CSSC[C@H](NC(=O)[C@H]([C@@H](C)O)NC(=O)[C@H](Cc4c[nH]c5ccccc45)NC1=O)C(=O)N[C@@H](CC(=O)O)C(=O)N[C@@H](CO)C(=O)N[C@@H](CCCCN)C(=O)N[C@@H](CCCNC(=N)N)C(=O)N[C@@H](C)C(=O)N3)NC(=O)[C@H](CCCNC(=N)N)NC(=O)[C@H](CC(C)C)NC(=O)CNC(=O)[C@H](CCC(=O)O)NC2=O [compound 708] | – | – | – | – | – | – | – | 682 | pIC50 ([2]; PatchXpress, tonic, Table 11): 7.00; pIC50 ([3]; PatchXpress, tonic, Table 11): 9.12; Nav1.4/Nav1.7 [3, 9]: 130; Nav1.5/Nav1.7 [3, 9]: 9941; pIC50 ([5]; PatchXpress, tonic, Table 11): 5.12; pIC50 [7]: 6.28
6 | C#CC[C@H](N)C(=O)N[C@@H](CCC(=O)O)C(=O)N[C@H]1CSSC[C@@H]2NC(=O)[C@@H]3CSSC[C@@H](C(=O)N[C@@H](CCCNC(=N)N)C(=O)N[C@@H](CCCCN)C(=O)N[C@@H](CCC(=O)O)C(=O)N[C@H](C(N)=O)[C@@H](C)CC)NC(=O)[C@H](Cc4c[nH]c5ccccc45)NC(=O)[C@H](CC(C)C)NC(=O)[C@H](CCCCN)NC(=O)[C@H](CSSC[C@H](NC(=O)[C@H]([C@@H](C)O)NC(=O)[C@H](Cc4c[nH]c5ccccc45)NC(=O)[C@H](CCCC)NC(=O)[C@H](Cc4c[nH]c5ccccc45)NC(=O)[C@H](CCCCN)NC(=O)[C@H](CCC(N)=O)NC1=O)C(=O)N[C@@H](CC(=O)O)C(=O)N[C@@H](CO)C(=O)N[C@@H](CCCCN)C(=O)N[C@@H](CCCNC(=N)N)C(=O)N[C@@H](C)C(=O)N3)NC(=O)[C@H](CCCNC(=N)N)NC(=O)[C@H](CC(C)C)NC(=O)CNC(=O)[C@H](CCC(=O)O)NC2=O [compound 709] | – | – | – | – | – | 164 | >887 | 518 | pIC50 [2, 8]: 6.73; pIC50 [3, 8]: 8.95; pIC50 [5, 8]: < 6.00; pIC50 [7]: 6.23
7 | C#CC[C@H](N)C(=O)N[C@@H](Cc1ccc(O)cc1)C(=O)N[C@H]1CSSC[C@@H]2NC(=O)[C@@H]3CSSC[C@@H](C(=O)N[C@@H](CCCNC(=N)N)C(=O)N[C@@H](CCCCN)C(=O)N[C@@H](CCC(=O)O)C(=O)N[C@H](C(N)=O)[C@@H](C)CC)NC(=O)[C@H](Cc4c[nH]c5ccccc45)NC(=O)[C@H](CC(C)C)NC(=O)[C@H](CCCCN)NC(=O)[C@H](CSSC[C@H](NC(=O)[C@H]([C@@H](C)O)NC(=O)[C@H](Cc4c[nH]c5ccccc45)NC(=O)[C@H](CCCC)NC(=O)[C@H](Cc4c[nH]c5ccccc45)NC(=O)[C@H](CCCCN)NC(=O)[C@H](CCC(N)=O)NC1=O)C(=O)N[C@@H](CC(=O)O)C(=O)N[C@@H](CCC(=O)O)C(=O)N[C@@H](CCCCN)C(=O)N[C@@H](CCCNC(=N)N)C(=O)N[C@@H](C)C(=O)N3)NC(=O)[C@H](CCCNC(=N)N)NC(=O)[C@H](CC(C)C)NC(=O)CNC(=O)[C@H](CCC(=O)O)NC2=O [compound 714] | – | – | – | – | – | 241 | >6341 | 737 | –
8 | CCCC[C@@H]1NC(=O)[C@H](Cc2c[nH]c3ccccc23)NC(=O)[C@H](CCCCN)NC(=O)[C@H](CCC(N)=O)NC(=O)[C@@H](NC(=O)[C@H](Cc2ccc(O)cc2)NC(=O)[C@@H](N)Cc2cn(CCCCCCNC(=O)CCOCCOCCOCCOCCNC(=O)CCCC[C@@H]3SC[C@@H]4NC(=O)N[C@@H]43)nn2)CSSC[C@@H]2NC(=O)[C@@H]3CSSC[C@@H](C(=O)N[C@@H](CCCNC(=N)N)C(=O)N[C@@H](CCCCN)C(=O)N[C@H](C(=O)N[C@H](C(N)=O)[C@@H](C)CC)[C@@H](C)CC)NC(=O)[C@H](Cc4c[nH]c5ccccc45)NC(=O)[C@H](CC(C)C)NC(=O)[C@H](CCCCN)NC(=O)[C@H](CSSC[C@H](NC(=O)[C@H]([C@@H](C)O)NC(=O)[C@H](Cc4c[nH]c5ccccc45)NC1=O)C(=O)N[C@@H](CC(=O)O)C(=O)N[C@@H](CO)C(=O)N[C@@H](CCCCN)C(=O)N[C@@H](CCCNC(=N)N)C(=O)N[C@@H](C)C(=O)N3)NC(=O)[C@H](CCCNC(=N)N)NC(=O)[C@H](CC(C)C)NC(=O)CNC(=O)[C@H](CCC(=O)O)NC2=O [compound 898] | 6 | 7.81 | 8.61 | 2067 | 5.29 | – | – | – | –
